Test results: patent US4789587A, “(1,3-dioxolan-2-yl-methyl)-1H-imidazoles as bactericidal and/or fungicidal agents” (IRE-Celltarg, S.A., priority 1986, dated 1988)
Converted amounts (≈) assume the structure as drawn. Read-outs that look alike come from different tables or passages of the source.

How the values were obtained:
Type in all cases: cell-based
[1] = test system: Salmonella typhimurium LT2, strain Demerec; assay: minimum inhibiting concentration, microtitration in liquid medium, S. typhimurium; settings: Salmonella enterica, read-out: MIC S. typhimurium
Method: (§1) The activity of the new derivatives according to the invention was tested in vitro by determining the minimum inhibiting concentration (MIC) of the molecules and their fungicidal (minimum fungicidal concentration MFC) or bactericidal (minimum bactericidal concentration MBC) activity. MFC and MBC are defined as the minimum dose which kills 99.9% of the organisms contained in the inoculum. Two species of yeasts pathogenic to man were used: Candida albicans ATCCe 10231 and Candida tropicalis ATCC 13803. Two species of bacteria were included in the screening: Staphylococcus aureus ATCC 25923 and Salmonella typhimurium LT2, strain Demerec. The MIC is determined after culturing overnight in a liquid medium, by the microtitration method in dishes containing 96 wells over a concentration range of 100 μM to 0.0008 μM. The inoculum contains 10^5 to 10^6 organisms/ml. The culture media consist on the one hand of RPMI to which 20% of foetal calf serum (inactivated for one hour at 56°) has been added in order to determine the fungistatic activity and Mueller-Hinton agar in order to determine the bacteriostatic power of the newly synthesized molecules on the other. The MFC and MBC for each of these molecules are obtained by subculturing a sample containing 10^3 organisms from each well giving negative results for the growth of the organisms, in a solid medium consisting of YM agar (yeasts) or Mueller-Hinton agar (bacteria) overnight at 37°.

[2] = test system: Leydig tumor cells from mice (I-10, ATCC No. CCL83); assay: in vitro synthesis of steroids: 20α-hydroxy-4-pregnen-3-one secretion by Leydig tumor cells induced by cAMP; settings: for 20α-OH-4-pregnen-3-one (1): dibutyryl-cAMP 1×10^-4 M, 3 hours incubation with compound, control 1744, basal 785; for activity at 0.94 µM: Mus musculus, Leydig, read-out: 20α-OH-4-pregnen-3-one (2) % enzyme activity relative to control
Text: (§2) Ketoconazole and its derivatives reduce the plasma levels of testosterone by inhibiting certain enzymes involved in its biogenesis. Progesterone is a key intermediate in the biogenesis of steroid hormones as it leads especially to estradiol in the ovary and to testosterone in the testicles. The inhibiting power of ketoconazole and its derivatives on the enzyme chain for the biogenesis of steroid hormones may be assessed by measuring the conversion of cholesterol into progesterone. A method of determination which enables this property to be quantified is described below.
(§3) Leydig tumor cells from mice (I-10, ATCC No. CCL83) were grown in a HAM's F10 medium to which 15% of horse serum and 2.5% of foetal calf serum were added. These cells have the property of secreting progesterone and a product of reduction of the latter which is no longer metabolized, 20α-hydroxy-4-pregnen-3-one. This secretion of steroids is induced by the addition of cAMP in the form of its dibutyryl ester (N^6, O^2' -dibutyryladenosine 3', 5'-cyclic monophosphate sodium salt monohydrate (Sigma)). The cells are subcultured in 25 cm^2 falcon dishes and maintained under CO2 (10%). When these become confluent (±1 mg/ml proteins) the medium is replaced with fresh medium containing dibutyryl-cAMP (1×10^-4 M). After incubating for 1 hour with the cAMP, the ketoconazole or its derivatives are added (9.4×10^-7 M) to the culture medium. After incubating for a further period of 3 hours, the supernatants are collected and will be used for the analysis of steroids by HPLC. The cells are rinsed with PBS (phosphate buffered saline: NaCl 0.15M, KCl 2.7 mM, Na2 HPO4 -KH2 PO4 3 mM pH 7.4) and after treating with DOC (deoxycholic acid), the determination of proteins is carried out by the Lowry method.
(§4) For the determination of steroids, 2 ml of the culture medium are brought into contact with 5 ml of ether. The tubes are vortexed for 2 minutes. After freezing the aqueous phases in an isopropanol/solid carbon dioxide bath, the ether phase is collected and the ether is evaporated off under a stream of nitrogen at 30° C. The dry extract is then diluted in 150 μl of water and 150 μl of acetonitrile and centrifuged at 13,000 rpm for 10 minutes. 30 μl of the supernatant are injected into HPLC on a 4 mm diameter, 30 cm long μBondapack C18 column (WATERS). The mobile phase consists of 38% of water, 31% acetonitrile and 31% methanol. The flowrate is 2 ml/min and readings are taken at 245 nm.

[3] = test system: Leydig tumor cells from mice (I-10, ATCC No. CCL83); assay: in vitro synthesis of steroids: progesterone secretion by Leydig tumor cells induced by cAMP; settings: for Progesterone (1): dibutyryl-cAMP 1×10^-4 M, 3 hours incubation with compound, control 3546, basal 554; for progesterone secretion, % of cAMP-induced control at 0.94 µM: Mus musculus, Leydig, read-out: Progesterone (2) % enzyme activity relative to control
Text: as §2, §3, §4

[4] = test system: Staphylococcus aureus ATCC 25923; assay: minimum bactericidal concentration, subculture on Mueller-Hinton agar, S. aureus
Method: as §1

[5] = test system: Candida albicans ATCCe 10231; assay: minimum fungicidal concentration, subculture on YM agar, C. albicans
Method: as §1

[6] = test system: Staphylococcus aureus ATCC 25923; assay: minimum inhibiting concentration, microtitration in liquid medium, S. aureus
Method: as §1

[7] = test system: Candida tropicalis ATCC 13803; assay: minimum fungicidal concentration, subculture on YM agar, C. tropicalis
Method: as §1

[8] = test system: Candida tropicalis ATCC 13803; assay: minimum inhibiting concentration, microtitration in liquid medium, C. tropicalis; settings: ATCC13803, RPMI + 20% foetal calf serum, overnight, inoculum 10^5 to 10^6 organisms/ml
Method: as §1

[9] = test system: Salmonella typhimurium LT2, strain Demerec; assay: minimum bactericidal concentration, subculture on Mueller-Hinton agar, S. typhimurium; settings: Salmonella enterica, minimum dose which kills 99.9% of the organisms (MBC), overnight at 37°, read-out: MFC S. typhimurium
Method: as §1, with “The MFC and MBC for each of these molecules are obtained by subculturing a sample containing 10^3 organisms from each well giving negative results for the growth of the organisms, in a solid medium consisting of YM agar (yeasts) or Mueller-Hinton agar (bacteria) overnight at 37°.” left out

[10] = test system: Candida albicans ATCCe 10231; assay: minimum inhibiting concentration, microtitration in liquid medium, C. albicans; settings: ATCCE10231, RPMI + 20% foetal calf serum, overnight, inoculum 10^5 to 10^6 organisms/ml
Method: as §1

[11] = ATCC25923, read-out: MIC S. aureus
[12] = 9.4×10^-7 M, relative to cells induced by cAMP in the absence of inhibitor
[13] = ATCC25923, minimum dose which kills 99.9% of the organisms (MBC), overnight at 37°, read-out: MFC S. aureus
[14] = ATCCE10231, minimum dose which kills 99.9% of the organisms, YM agar, overnight at 37°, read-out: MFC C. albicans
[15] = ATCC25923, Mueller-Hinton, overnight, inoculum 10^5 to 10^6 organisms/ml, read-out: MIC S. aureus
[16] = ATCC13803, minimum dose which kills 99.9% of the organisms, YM agar, overnight at 37°, read-out: MFC C. tropicalis

SMILES | MIC [8] [µM] | MIC [10] [µM] | MIC [6, 15] [µM] | 20α-OH-4-pregnen-3-one (1) ([2]; 9.4×10^-7 M) | Progesterone (1) ([3]; 9.4×10^-7 M) | MIC [6, 11] [µM] | activity at 0.94 µM [2, 12] [%] | progesterone secretion, % of cAMP-induced control at 0.94 µM [3, 12] [%] | MBC [4, 13] [µM] | MFC [5, 14] [µM] | MFC [7, 16] [µM] | further results
Clc1ccc(C2(Cn3ccnc3)OCC(COc3ccc(N4CCNCC4)cc3)O2)c(Cl)c1 (stereo not drawn) [Cis-1-[A]-piperazine, reference compound] |  |  |  | 1461 ng of steroids/mg of cell prot | 2783 ng of steroids/mg of cell prot | 3.65 (≈ 1.79 µg/mL) |  |  |  |  |  | MIC [1]: > 100 µM; activity at 0.94 µM [2]: 84%; progesterone secretion, % of cAMP-induced control at 0.94 µM [3]: 78%; MBC ([4]; ATCC25923, read-out: MFC S. aureus, minimum dose which kills 99.9% of the organisms (MBC), overnight at 37°): 25 µM (≈ 12.2 µg/mL); MFC ([5]; ATCCE10231, read-out: MFC C. albicans): 2.35 µM (≈ 1.15 µg/mL); MFC ([7]; ATCC13803, read-out: MFC C. tropicalis): 1.58 µM (≈ 0.773 µg/mL)
Clc1ccc(COC(Cn2ccnc2)c2ccc(Cl)cc2Cl)c(Cl)c1 (stereo not drawn) [Miconazole, reference compound] |  |  |  |  |  | 1.56 (≈ 0.649 µg/mL) |  |  |  |  |  | 
NCC(=O)N1CCN(c2ccc(OCC3COC(Cn4ccnc4)(c4ccc(Cl)cc4Cl)O3)cc2)CC1 (stereo not drawn) [No. 1, Cis-4-[A]-1-(glycyl)piperazine] | 0.119 | 0.16 | 12 (≈ 6.55 µg/mL) |  |  |  |  |  | 25 (≈ 13.7 µg/mL) | 2.38 (≈ 1.3 µg/mL) | 1.3 (≈ 0.71 µg/mL) | 
NCC(=O)NCC(=O)N1CCN(c2ccc(OCC3COC(Cn4ccnc4)(c4ccc(Cl)cc4Cl)O3)cc2)CC1 (stereo not drawn) [No. 3, Cis-4-[A]-1-(N-glycylglycyl)piperazine] | 0.48 | 0.48 |  |  |  |  |  |  |  |  |  | 

The next lines start with results.

MIC [8] [µM] | MIC [10] [µM] | MIC [6, 15] [µM] | SMILES | 20α-OH-4-pregnen-3-one (1) ([2]; 9.4×10^-7 M) | Progesterone (1) ([3]; 9.4×10^-7 M) | MIC [6, 11] [µM] | activity at 0.94 µM [2, 12] [%] | progesterone secretion, % of cAMP-induced control at 0.94 µM [3, 12] [%] | MBC [4, 13] [µM] | MFC [5, 14] [µM] | MFC [7, 16] [µM] | further results
0.049 | 0.053 | 20.4 (≈ 10.9 µg/mL) | CC(=O)N1CCN(c2ccc(OCC3COC(Cn4ccnc4)(c4ccc(Cl)cc4Cl)O3)cc2)CC1 (stereo not drawn) [Ketoconazole, reference compound] | 1296 ng of steroids/mg of cell prot | 1878 ng of steroids/mg of cell prot |  | 74 | 53 | 50 (≈ 26.6 µg/mL) | 0.22 (≈ 0.117 µg/mL) | 4.88 (≈ 2.59 µg/mL) | MIC ([1]; Mueller-Hinton, overnight, inoculum 10^5 to 10^6 organisms/ml): > 100 µM; MBC [9]: > 100 µM
0.006 | 0.006 |  | CC(N)C(=O)N1CCN(c2ccc(OCC3COC(Cn4ccnc4)(c4ccc(Cl)cc4Cl)O3)cc2)CC1 (stereo not drawn) [No. 2, Cis-4-[A]-1-(alanyl)piperazine] | 1299 ng of steroids/mg of cell prot | 1939 ng of steroids/mg of cell prot |  | 74 | 55 |  |  |  | 
